From article PMC5218480 (PLoS ONE, 2017)

Test system: MV-4-11 cells
Test: Gene expression microarray analysis (Affymetrix PrimeView) and GSEA
Type: cell-based, human
Design: RFU PODN (11730768_x_at) / Fold change /veh PODN (11730768_x_at) / RFU LINC00158 (11744669_a_at) / Fold change /veh LINC00158 (11744669_a_at) / RFU DUSP10 (11751237_a_at) / Fold change /veh DUSP10 (11751237_a_at) / RFU ID3 (11757404_x_at) / Fold change /veh ID3 (11757404_x_at) / RFU PLEKHG5 (11737974_s_at) / Fold change /veh PLEKHG5 (11737974_s_at) / RFU LRRC4B (11730491_at) / Fold change /veh LRRC4B (11730491_at) / RFU GIMAP4 (11747438_a_at) / Fold change /veh GIMAP4 (11747438_a_at) / RFU KRT8 (11758183_x_at) / Fold change /veh KRT8 (11758183_x_at) / RFU CNN1 (11734310_a_at) / Fold change /veh CNN1 (11734310_a_at) / RFU VPS37D (11726825_at) / Fold change /veh VPS37D (11726825_at) / RFU C10orf10 (11716522_x_at) / Fold change /veh C10orf10 (11716522_x_at) / RFU KIR2DL2 /// KIR2DL4 /// KIR2DL5A /// KIR2DL5B /// KIR2DS1 /// KIR2DS2 /// KIR2DS3 /// KIR2DS4 /// KIR3DL3 /// KIR3DL3 /// KIR3DS1 (11738374_at) / Fold change /veh KIR2DL2 /// KIR2DL4 /// KIR2DL5A /// KIR2DL5B /// KIR2DS1 /// KIR2DS2 /// KIR2DS3 /// KIR2DS4 /// KIR3DL3 /// KIR3DL3 /// KIR3DS1 (11738374_at) / RFU C1QL1 (11718748_at) / Fold change /veh C1QL1 (11718748_at) / RFU TMPRSS4 (11747572_a_at) / Fold change /veh TMPRSS4 (11747572_a_at) / RFU HAMP (11756126_x_at) / Fold change /veh HAMP (11756126_x_at) / RFU RNFT2 (11725882_a_at) / Fold change /veh RNFT2 (11725882_a_at) / RFU NR4A2 (11747474_a_at) / Fold change /veh NR4A2 (11747474_a_at) / RFU ABCC12 (11746883_a_at) / Fold change /veh ABCC12 (11746883_a_at) / RFU TMEM136 (11760407_x_at) / Fold change /veh TMEM136 (11760407_x_at) / RFU CLDN22 /// WWC2 (11732394_at) / Fold change /veh CLDN22 /// WWC2 (11732394_at) / RFU HLA-DPB1 (11760878_x_at) / Fold change /veh HLA-DPB1 (11760878_x_at) / RFU SPINT1 (11716480_a_at) / Fold change /veh SPINT1 (11716480_a_at) / RFU GAP43 (11754022_s_at) / Fold change /veh GAP43 (11754022_s_at) / RFU A4GNT (11735810_at) / Fold change /veh A4GNT (11735810_at) / RFU PRB3 (11715151_x_at) / Fold change /veh PRB3 (11715151_x_at) / RFU TUBB4B (11761932_at) / Fold change /veh TUBB4B (11761932_at) / RFU CAPN14 (11732068_a_at) / Fold change /veh CAPN14 (11732068_a_at) / RFU TMCC2 (11721928_a_at) / Fold change /veh TMCC2 (11721928_a_at) / RFU IRGQ (11745062_a_at) / Fold change /veh IRGQ (11745062_a_at) / RFU FAM174B (11720279_a_at) / Fold change /veh FAM174B (11720279_a_at) / RFU TMPRSS4 (11748680_a_at) / Fold change /veh TMPRSS4 (11748680_a_at) / RFU FAM212B (11763350_a_at) / Fold change /veh FAM212B (11763350_a_at) / RFU PLEKHG5 (11743358_a_at) / Fold change /veh PLEKHG5 (11743358_a_at) / RFU ZSCAN30 (11745921_a_at) / Fold change /veh ZSCAN30 (11745921_a_at) / RFU CMKLR1 (11741424_a_at) / Fold change /veh CMKLR1 (11741424_a_at) / RFU LOC101060620 /// MAPK8IP1 (11723275_at) / Fold change /veh LOC101060620 /// MAPK8IP1 (11723275_at) / RFU SPTSSB (11747773_x_at) / Fold change /veh SPTSSB (11747773_x_at) / RFU PRSS12 (11739890_at) / Fold change /veh PRSS12 (11739890_at) / RFU BIN1 (11741810_x_at) / Fold change /veh BIN1 (11741810_x_at) / RFU WNT11 (11732464_a_at) / Fold change /veh WNT11 (11732464_a_at) / RFU C10orf10 (11716521_a_at) / Fold change /veh C10orf10 (11716521_a_at) / RFU C5orf56 (11738089_at) / Fold change /veh C5orf56 (11738089_at) / RFU CYB561 (11721691_x_at) / Fold change /veh CYB561 (11721691_x_at) / RFU ANKRD19P (11752326_a_at) / Fold change /veh ANKRD19P (11752326_a_at) / RFU OR2T12 /// OR2T33 /// OR2T8 (11738714_s_at) / Fold change /veh OR2T12 /// OR2T33 /// OR2T8 (11738714_s_at) / RFU VCAN (11748164_a_at) / Fold change /veh VCAN (11748164_a_at) / RFU JSRP1 (11732532_at) / Fold change /veh JSRP1 (11732532_at) / RFU KRTAP10-11 (11738290_x_at) / Fold change /veh KRTAP10-11 (11738290_x_at) / RFU MYO3A (11730013_a_at) / Fold change /veh MYO3A (11730013_a_at) / RFU EBF3 (11725865_a_at) / Fold change /veh EBF3 (11725865_a_at) / RFU CAMK2N1 (11719241_x_at) / Fold change /veh CAMK2N1 (11719241_x_at) / RFU C5orf56 (11738088_a_at) / Fold change /veh C5orf56 (11738088_a_at) / RFU OLFML3 (11715873_a_at) / Fold change /veh OLFML3 (11715873_a_at) / RFU LOC100653217 /// NTM (11731650_a_at) / Fold change /veh LOC100653217 /// NTM (11731650_a_at) / RFU MAPK11 (11762145_a_at) / Fold change /veh MAPK11 (11762145_a_at) / RFU FIZ1 (11724087_x_at) / Fold change /veh FIZ1 (11724087_x_at) / RFU OASL (11726364_x_at) / Fold change /veh OASL (11726364_x_at) / RFU SOX15 (11748057_x_at) / Fold change /veh SOX15 (11748057_x_at) / RFU CD79A (11719716_a_at) / Fold change /veh CD79A (11719716_a_at) / RFU HIST1H1D (11736915_at) / Fold change /veh HIST1H1D (11736915_at) / RFU CASKIN2 (11723855_a_at) / Fold change /veh CASKIN2 (11723855_a_at) / RFU LOC730098 (11760151_x_at) / Fold change /veh LOC730098 (11760151_x_at) / RFU OR4N2 (11742367_at) / Fold change /veh OR4N2 (11742367_at) / RFU PRRT2 (11749266_a_at) / Fold change /veh PRRT2 (11749266_a_at) / RFU SNX32 (11753110_a_at) / Fold change /veh SNX32 (11753110_a_at) / RFU CDHR5 (11726645_a_at) / Fold change /veh CDHR5 (11726645_a_at) / RFU RCAN1 (11760418_a_at) / Fold change /veh RCAN1 (11760418_a_at) / RFU FAM167A (11723789_a_at) / Fold change /veh FAM167A (11723789_a_at) / RFU FAM26E (11764081_at) / Fold change /veh FAM26E (11764081_at) / RFU ISYNA1 (11749810_s_at) / Fold change /veh ISYNA1 (11749810_s_at) / RFU ACY1 (11761880_at) / Fold change /veh ACY1 (11761880_at) / RFU 11764098_at / Fold change /veh 11764098_at / RFU SAMD14 (11745864_x_at) / Fold change /veh SAMD14 (11745864_x_at) / RFU NPB (11741838_a_at) / Fold change /veh NPB (11741838_a_at) / RFU TMPRSS6 (11731388_a_at) / Fold change /veh TMPRSS6 (11731388_a_at) / RFU KRTAP10-2 (11738614_at) / Fold change /veh KRTAP10-2 (11738614_at) / RFU ARHGAP8 /// PRR5-ARHGAP8 (11727945_x_at) / Fold change /veh ARHGAP8 /// PRR5-ARHGAP8 (11727945_x_at) / RFU KRTAP5-7 /// NADSYN1 (11734609_at) / Fold change /veh KRTAP5-7 /// NADSYN1 (11734609_at) / RFU RASL12 (11751679_a_at) / Fold change /veh RASL12 (11751679_a_at) / RFU CDKN2B (11736163_a_at) / Fold change /veh CDKN2B (11736163_a_at) / RFU PRF1 (11729649_at) / Fold change /veh PRF1 (11729649_at) / RFU, ZNF638 /// ZNF638-IT1 / Fold change vs veh, ZNF638 /// ZNF638-IT1 / RFU, PANK3 / Fold change vs veh, PANK3 / RFU, SH3YL1 / Fold change vs veh, SH3YL1 / RFU, ZEB2 / Fold change vs veh, ZEB2 / RFU, NRIP1 / Fold change vs veh, NRIP1 / RFU, PTTG1IP / Fold change vs veh, PTTG1IP / RFU, CAPN2 / Fold change vs veh, CAPN2 / RFU, MED14 / Fold change vs veh, MED14 / RFU, SNORA58 / Fold change vs veh, SNORA58 / RFU, C1orf63 / Fold change vs veh, C1orf63 / RFU, LRRFIP1 / Fold change vs veh, LRRFIP1 / RFU, NDUFAF7 / Fold change vs veh, NDUFAF7 / RFU, SLC12A2 / Fold change vs veh, SLC12A2 / RFU, IBTK / Fold change vs veh, IBTK / RFU, ESF1 / Fold change vs veh, ESF1 / Fold change vs veh, TMEM50B / RFU, TAOK1 / Fold change vs veh, TAOK1 / RFU, ACBD3 / Fold change vs veh, ACBD3 / RFU, TMA16 / Fold change vs veh, TMA16 / RFU, RWDD3 / Fold change vs veh, RWDD3 / RFU, BCAT1 / Fold change vs veh, BCAT1 / RFU, EDEM3 / Fold change vs veh, EDEM3 / RFU, TMEM33 / Fold change vs veh, TMEM33 / RFU, WDR75 / Fold change vs veh, WDR75 / RFU, AHCTF1 / Fold change vs veh, AHCTF1 / RFU, TFRC / Fold change vs veh, TFRC / RFU, ZDHHC17 / Fold change vs veh, ZDHHC17 / RFU, NOM1 / Fold change vs veh, NOM1 / RFU, ARL8B / Fold change vs veh, ARL8B / RFU, ZBTB11 / Fold change vs veh, ZBTB11 / RFU, TAMM41 / Fold change vs veh, TAMM41 / RFU, KIAA1704 /// LOC100996395 / Fold change vs veh, KIAA1704 /// LOC100996395 / RFU, ING1 / Fold change vs veh, ING1 / RFU, TRMT61B / Fold change vs veh, TRMT61B / RFU, FUBP3 / Fold change vs veh, FUBP3 / RFU, TP53 / Fold change vs veh, TP53 / RFU, TNKS2 / Fold change vs veh, TNKS2 / RFU, ZFP14 / Fold change vs veh, ZFP14 / RFU, ACTR2 / Fold change vs veh, ACTR2 / RFU, PPP3R1 / Fold change vs veh, PPP3R1 / RFU, PIK3R1 / Fold change vs veh, PIK3R1 / RFU, HNRNPA1 / Fold change vs veh, HNRNPA1 / RFU, RNF170 / Fold change vs veh, RNF170 / RFU, ZNF28 / Fold change vs veh, ZNF28 / RFU, RNGTT / Fold change vs veh, RNGTT / RFU, OGT / Fold change vs veh, OGT / RFU, BRD1 / Fold change vs veh, BRD1 / RFU, MARS / Fold change vs veh, MARS / RFU, ZNF655 / Fold change vs veh, ZNF655 / RFU, FAHD1 / Fold change vs veh, FAHD1 / RFU, BDP1 / Fold change vs veh, BDP1 / RFU, LRRCC1 / Fold change vs veh, LRRCC1 / RFU, ARID1A / Fold change vs veh, ARID1A / RFU, ZNF146 / Fold change vs veh, ZNF146 / RFU, ZNF330 / Fold change vs veh, ZNF330 / RFU, GPN3 / Fold change vs veh, GPN3 / RFU, C9orf123 / Fold change vs veh, C9orf123 / RFU, N4BP2L2 / Fold change vs veh, N4BP2L2 / RFU, ARFIP1 / Fold change vs veh, ARFIP1 / RFU, FAM179B / Fold change vs veh, FAM179B / RFU, BCL10 / Fold change vs veh, BCL10 / RFU, UHRF1BP1L / Fold change vs veh, UHRF1BP1L / RFU, BET1 / Fold change vs veh, BET1 / RFU, CNOT2 / Fold change vs veh, CNOT2 / RFU, ZNF268 / Fold change vs veh, ZNF268 / Fold change vs veh, ZNF507 / RFU, DGCR2 / Fold change vs veh, DGCR2 / RFU, WDSUB1 / Fold change vs veh, WDSUB1 / Fold change vs veh, HSP90B1 /// MIR3652 / RFU, ADSS / Fold change vs veh, ADSS / RFU, GK / Fold change vs veh, GK / RFU, ZNF148 / Fold change vs veh, ZNF148 / RFU, TAF9 / Fold change vs veh, TAF9 / RFU, SLC1A5 / Fold change vs veh, SLC1A5 / RFU, SLMO2 / Fold change vs veh, SLMO2 / RFU, ABCC4 / Fold change vs veh, ABCC4 / RFU, LOC101060439 /// RAP1B / Fold change vs veh, LOC101060439 /// RAP1B / RFU, RFX7 / Fold change vs veh, RFX7 / RFU, GTPBP10 / Fold change vs veh, GTPBP10 / RFU, CNEP1R1 / Fold change vs veh, CNEP1R1 / RFU, BIVM-ERCC5 /// ERCC5 / Fold change vs veh, BIVM-ERCC5 /// ERCC5 / RFU, ILF3 / Fold change vs veh, ILF3 / RFU 11762660_at / Fold change /veh 11762660_at / RFU VCAN (11757783_s_at) / Fold change /veh VCAN (11757783_s_at) / RFU DDX43 (11728927_at) / Fold change /veh DDX43 (11728927_at) / RFU KRT8 (11758188_x_at) / Fold change /veh KRT8 (11758188_x_at) / RFU NKD1 (11759106_at) / Fold change /veh NKD1 (11759106_at) / RFU SRD5A1 (11742802_a_at) / Fold change /veh SRD5A1 (11742802_a_at) / RFU TPSAB1 /// TPSB2 (11721975_s_at) / Fold change /veh TPSAB1 /// TPSB2 (11721975_s_at) / RFU GSTM3 (11746129_a_at) / Fold change /veh GSTM3 (11746129_a_at) / RFU IL23R (11737362_x_at) / Fold change /veh IL23R (11737362_x_at) / RFU TMEM51 (11727254_a_at) / Fold change /veh TMEM51 (11727254_a_at) / RFU PIWIL2 (11732686_x_at) / Fold change /veh PIWIL2 (11732686_x_at) / RFU ORM1 (11744905_x_at) / Fold change /veh ORM1 (11744905_x_at) / RFU CCDC152 (11743942_at) / Fold change /veh CCDC152 (11743942_at) / RFU ECM1 (11717891_a_at) / Fold change /veh ECM1 (11717891_a_at) / RFU IL23R (11748794_a_at) / Fold change /veh IL23R (11748794_a_at) / RFU TNFAIP8L3 (11732012_x_at) / Fold change /veh TNFAIP8L3 (11732012_x_at) / RFU MBOAT4 (11741988_at) / Fold change /veh MBOAT4 (11741988_at) / RFU 11764193_at / Fold change /veh 11764193_at / RFU TMEM53 (11763286_at) / Fold change /veh TMEM53 (11763286_at) / RFU MAGEB2 (11727129_at) / Fold change /veh MAGEB2 (11727129_at) / RFU TMEM200A (11744735_a_at) / Fold change /veh TMEM200A (11744735_a_at) / RFU CCDC152 (11751479_a_at) / Fold change /veh CCDC152 (11751479_a_at) / RFU FAM211A (11726209_a_at) / Fold change /veh FAM211A (11726209_a_at) / RFU RGS16 (11746705_a_at) / Fold change /veh RGS16 (11746705_a_at) / RFU VCAN (11755009_s_at) / Fold change /veh VCAN (11755009_s_at) / RFU RHOB (11743442_s_at) / Fold change /veh RHOB (11743442_s_at) / RFU RGS16 (11720943_a_at) / Fold change /veh RGS16 (11720943_a_at) / RFU RGS16 (11720944_at) / Fold change /veh RGS16 (11720944_at) / RFU, VPS4B / Fold change vs veh, VPS4B / RFU, CREB1 / Fold change vs veh, CREB1 / RFU, DNAJC13 / Fold change vs veh, DNAJC13 / RFU, GNAQ / Fold change vs veh, GNAQ / RFU, CDK5R1 / Fold change vs veh, CDK5R1 / RFU, ZRANB3 / Fold change vs veh, ZRANB3 / RFU, CUL4A / Fold change vs veh, CUL4A / RFU, CCNY / Fold change vs veh, CCNY / RFU, UFL1 / Fold change vs veh, UFL1 / RFU, COG3 / Fold change vs veh, COG3 / RFU, DIAPH2 / Fold change vs veh, DIAPH2 / RFU, SKA2 / Fold change vs veh, SKA2 / RFU, AFF3 / Fold change vs veh, AFF3 / RFU, LMF1 / Fold change vs veh, LMF1 / RFU, IPO11 / Fold change vs veh, IPO11 / RFU, DFFB / Fold change vs veh, DFFB / RFU, FOXP1 / Fold change vs veh, FOXP1 / RFU, CARD8 / Fold change vs veh, CARD8 / RFU, STRN3 / Fold change vs veh, STRN3 / RFU, ADK / Fold change vs veh, ADK / RFU, RASSF2 / Fold change vs veh, RASSF2 / RFU, WIPF1 / Fold change vs veh, WIPF1 / RFU, LARP1B / Fold change vs veh, LARP1B / RFU, RASA1 / Fold change vs veh, RASA1 / RFU, RB1 / Fold change vs veh, RB1 / RFU, PPFIA1 / Fold change vs veh, PPFIA1 / RFU, MAT2A / Fold change vs veh, MAT2A / RFU, CCT5 / Fold change vs veh, CCT5 / RFU, WDR92 / Fold change vs veh, WDR92 / RFU, CUX1 / Fold change vs veh, CUX1 / RFU, TTC7A / Fold change vs veh, TTC7A / RFU, TMEM135 / Fold change vs veh, TMEM135 / RFU, DEPTOR / Fold change vs veh, DEPTOR / RFU, CPM / Fold change vs veh, CPM / RFU, DNAJB6 / Fold change vs veh, DNAJB6 / RFU, CACNA2D3 / Fold change vs veh, CACNA2D3 / RFU, DTX4 / Fold change vs veh, DTX4 / RFU, TFCP2 / Fold change vs veh, TFCP2 / RFU, GMCL1 /// GMCL1P1 / Fold change vs veh, GMCL1 /// GMCL1P1 / RFU, AEBP2 / Fold change vs veh, AEBP2 / RFU, SNHG1 /// SNORD22 /// SNORD25 /// SNORD26 /// SNORD27 /// SNORD28 /// SNORD29 /// SNORD31 / Fold change vs veh, SNHG1 /// SNORD22 /// SNORD25 /// SNORD26 /// SNORD27 /// SNORD28 /// SNORD29 /// SNORD31 / Fold change (Aza/veh), C12orf56 (ProbeSet 11735607_a_at) / Fold change (ACY-1035/veh), C12orf56 (ProbeSet 11735607_a_at) / Fold change (Aza/veh), FGFR1OP (ProbeSet 11751329_s_at) / Fold change (ACY-1035/veh), FGFR1OP (ProbeSet 11751329_s_at) / Fold change (Aza/veh), VPS36 (ProbeSet 11739960_a_at) / Fold change (ACY-1035/veh), VPS36 (ProbeSet 11739960_a_at) / RFU SYPL1 (11715823_x_at) / Fold change /veh SYPL1 (11715823_x_at) / RFU IGFBP7 (11715501_s_at) / Fold change /veh IGFBP7 (11715501_s_at) / RFU REEP3 (11722064_at) / Fold change /veh REEP3 (11722064_at) / RFU IGLL1 (11728026_x_at) / Fold change /veh IGLL1 (11728026_x_at): dose or concentration left out as unconfirmed
Conditions: MV-4-11 cells, 48 hours

## Nc1ccc(-c2cccs2)cc1NC(=O)c1ccc2c(c1)cc(C1CC1)n2CCN1CCOCC1 [ACY-1035]
  Fold change /veh FAM167A (11723789_a_at): 1.14
